Measured values: publication PMC9866191, “Novel 9-Benzylaminoacridine Derivatives as Dual Inhibitors of Phosphodiesterase 5 and Topoisomerase II for the Treatment of Colon Cancer” (Molecules, 2023)

What was measured:
Assay type in all cases: cell-based
SK-MEL-2 = assay: NCI-60 one-dose screen; conditions: Homo sapiens; SK-MEL-2, Melanoma panel; single dose 10^−5 M; read-out: Growth inhibition %
NCI/ADR-RES = assay: NCI-60 one-dose screen; conditions: Homo sapiens, Ovarian Cancer panel, single dose 10^−5 M, read-out: Growth inhibition %
DU-145 = assay: NCI-60 one-dose screen; conditions: Homo sapiens; DU-145, Prostate Cancer panel; single dose 10^−5 M; read-out: Growth inhibition %
RXF 393 = assay: NCI-60 one-dose screen; conditions: Homo sapiens; RXF 393, Renal Cancer panel; single dose 10^−5 M; read-out: Growth inhibition %
UO-31 = assay: NCI-60 one-dose screen; conditions: Homo sapiens; UO-31, Renal Cancer panel; single dose 10^−5 M; read-out: Growth inhibition %
OVCAR-8 = assay: NCI-60 one-dose screen; conditions: Homo sapiens; OVCAR-8, Ovarian Cancer panel; single dose 10^−5 M; read-out: Growth inhibition %
MDA-MB-231/ATCC = assay: NCI-60 one-dose screen; conditions: Homo sapiens, Breast Cancer panel, single dose 10^−5 M, read-out: Growth inhibition %
CAKI-1 = assay: NCI-60 one-dose screen; conditions: Homo sapiens; CAKI-1, Renal Cancer panel; single dose 10^−5 M; read-out: Growth inhibition %
COLO 205 = assay: NCI-60 one-dose screen; conditions: Homo sapiens; COLO 205, Colon Cancer panel; single dose 10^−5 M; read-out: Growth inhibition %
HOP-62 = assay: NCI-60 one-dose screen; conditions: Homo sapiens; HOP-62, Non-small cell lung panel; single dose 10^−5 M; read-out: Growth inhibition %
ACHN = assay: NCI-60 one-dose screen; conditions: Homo sapiens, Renal Cancer panel, single dose 10^−5 M, read-out: Growth inhibition %
SK-OV-3 = assay: NCI-60 one-dose screen; conditions: Homo sapiens; SK-OV-3, Ovarian Cancer panel; single dose 10^−5 M; read-out: Growth inhibition %
SNB-19 = assay: NCI-60 one-dose screen; conditions: Homo sapiens; SNB-19, CNS Cancer panel; single dose 10^−5 M; read-out: Growth inhibition %
NCI-H226 = assay: NCI-60 one-dose screen; conditions: Homo sapiens; NCI-H226, Non-small cell lung panel; single dose 10^−5 M; read-out: Growth inhibition %
U251 = assay: NCI-60 one-dose screen; conditions: Homo sapiens, U-251; U251, CNS Cancer panel; single dose 10^−5 M; read-out: Growth inhibition %
T-47D = assay: NCI-60 one-dose screen; conditions: Homo sapiens, T47D, Breast Cancer panel, single dose 10^−5 M, read-out: Growth inhibition %
HOP-92 = assay: NCI-60 one-dose screen; conditions: Homo sapiens; HOP-92, Non-small cell lung panel; single dose 10^−5 M; read-out: Growth inhibition %
OVCAR-3 = assay: NCI-60 one-dose screen; conditions: Homo sapiens; OVCAR-3, Ovarian Cancer panel; single dose 10^−5 M; read-out: Growth inhibition %
SK-MEL-5 = assay: NCI-60 one-dose screen; conditions: Homo sapiens; SK-MEL-5, Melanoma panel; single dose 10^−5 M; read-out: Growth inhibition %
NCI-H23 = assay: NCI-60 one-dose screen; conditions: Homo sapiens; NCI-H23, Non-small cell lung panel; single dose 10^−5 M; read-out: Growth inhibition %
A549/ATCC = assay: NCI-60 one-dose screen; conditions: Homo sapiens, Non-small cell lung panel, single dose 10^−5 M, read-out: Growth inhibition %
OVCAR-4 = assay: NCI-60 one-dose screen; conditions: Homo sapiens; OVCAR-4, Ovarian Cancer panel; single dose 10^−5 M; read-out: Growth inhibition %
SN12C = assay: NCI-60 one-dose screen; conditions: Homo sapiens, Renal Cancer panel, single dose 10^−5 M, read-out: Growth inhibition %
HCC-2998 = assay: NCI-60 one-dose screen; conditions: Homo sapiens; HCC-2998, Colon Cancer panel; single dose 10^−5 M; read-out: Growth inhibition %
K-562 = assay: NCI-60 one-dose screen; conditions: Homo sapiens, K562; K-562, Leukemia panel; single dose 10^−5 M; read-out: Growth inhibition %
UACC-62 = assay: NCI-60 one-dose screen; conditions: Homo sapiens; UACC-62, Melanoma panel; single dose 10^−5 M; read-out: Growth inhibition %
OVCAR-5 = assay: NCI-60 one-dose screen; conditions: Homo sapiens; OVCAR-5, Ovarian Cancer panel; single dose 10^−5 M; read-out: Growth inhibition %
MDA-MB-435 = assay: NCI-60 one-dose screen; conditions: Homo sapiens; MDA-MB-435, Melanoma panel; single dose 10^−5 M; read-out: Growth inhibition %
SF-295 = assay: NCI-60 one-dose screen; conditions: Homo sapiens; SF-295, CNS Cancer panel; single dose 10^−5 M; read-out: Growth inhibition %
SNB-75 = assay: NCI-60 one-dose screen; conditions: Homo sapiens; SNB-75, CNS Cancer panel; single dose 10^−5 M; read-out: Growth inhibition %
[1] = test system: panel of 60 human tumor cell lines; assay: NCI 60-cell line one-dose screen (mean); conditions: mean of the 60 cell lines, single dose 10^−5 M, read-out: Mean % Growth Inhibition
Summary of the method: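 Each cell line in the NCI DTP 60-line human tumor panel received one compound concentration, 10^−5 M. Activity is expressed as percent inhibition.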

| Structure (SMILES) | inhibition at 10 µM (SK-MEL-2) [%] | inhibition at 10 µM (NCI/ADR-RES) [%] | inhibition at 10 µM (DU-145) [%] | inhibition at 10 µM (RXF 393) [%] | inhibition at 10 µM (UO-31) [%] | inhibition at 10 µM (OVCAR-8) [%] | inhibition at 10 µM (MDA-MB-231/ATCC) [%] | inhibition at 10 µM (CAKI-1) [%] | inhibition at 10 µM (COLO 205) [%] | inhibition at 10 µM (HOP-62) [%] | inhibition at 10 µM (ACHN) [%] | inhibition at 10 µM (SK-OV-3) [%] | inhibition at 10 µM (SNB-19) [%] | inhibition at 10 µM (NCI-H226) [%] | inhibition at 10 µM (U251) [%] | inhibition at 10 µM (T-47D) [%] | inhibition at 10 µM (HOP-92) [%] | inhibition at 10 µM (OVCAR-3) [%] | inhibition at 10 µM (SK-MEL-5) [%] | inhibition at 10 µM (NCI-H23) [%] | other results |
| --- | --- | --- | --- | --- | --- | --- | --- | --- | --- | --- | --- | --- | --- | --- | --- | --- | --- | --- | --- | --- | --- |
| Fc1ccccc1CNc1c2ccccc2nc2ccccc12 [Compound 8, Acridin-9-yl-(2-fluorobenzyl)-amine] | 21.8 | 62 | 38.1 | 51.2 | 72.3 | 68.9 | 46 | 64.2 | 84.9 | 47.5 | 76.9 | 49.1 | 56.1 | 43.6 | 53.1 | 55.2 | 77.3 | 35.9 | 39.3 | 55.9 | inhibition at 10 µM (A549/ATCC): 65.9%; inhibition at 10 µM (OVCAR-4): 60%; inhibition at 10 µM (SN12C): 60.4%; inhibition at 10 µM (HCC-2998): 52%; inhibition at 10 µM (K-562): 85.8%; inhibition at 10 µM (UACC-62): 38.4%; inhibition at 10 µM (OVCAR-5): 48.8%; inhibition at 10 µM (MDA-MB-435): 43.8%; inhibition at 10 µM (SF-295): 48.2%; inhibition at 10 µM (SNB-75): 28.3%; inhibition at 10 µM [1]: 56.5% |
| Fc1ccc(CNc2c3ccccc3nc3ccccc23)c(F)c1 [Compound 21, Acridin-9-yl-(2,4-difluorobenzyl)-amine] | 0.35 | 63.8 | 49.1 | 65.5 | 69.7 | 59.8 | 55.6 | 64.7 | 73.2 | 42.8 | 76.5 | 40.2 | 58.5 | 45.2 | 55.9 | 52.6 | 103 | 29.8 | 30.6 | 57.2 | inhibition at 10 µM (A549/ATCC): 59.9%; inhibition at 10 µM (OVCAR-4): 108%; inhibition at 10 µM (SN12C): 62.8%; inhibition at 10 µM (HCC-2998): 58.7%; inhibition at 10 µM (K-562): 77.5%; inhibition at 10 µM (UACC-62): 40.9%; inhibition at 10 µM (OVCAR-5): 48.3%; inhibition at 10 µM (MDA-MB-435): 33.5%; inhibition at 10 µM (SF-295): 59.6%; inhibition at 10 µM (SNB-75): 18.9%; inhibition at 10 µM [1]: 56.4% |
| Clc1ccc(CNc2c3ccccc3nc3ccccc23)cc1 [Compound 13, Acridin-9-yl-(4-chlorobenzyl)-amine] | 27.6 | 63.4 | 45.2 | 70.3 | 73 | 68.1 | 45.2 | 58.6 | 91.4 | 47 | 77.2 | 40 | 56.9 | 24.5 | 53.8 | 56.6 | 74.5 | 48.9 | 38.8 | 47 | inhibition at 10 µM (A549/ATCC): 60.7%; inhibition at 10 µM (OVCAR-4): 66.9%; inhibition at 10 µM (SN12C): 60.9%; inhibition at 10 µM (HCC-2998): 110%; inhibition at 10 µM (K-562): 95.7%; inhibition at 10 µM (UACC-62): 29.3%; inhibition at 10 µM (OVCAR-5): 49.5%; inhibition at 10 µM (MDA-MB-435): 39.3%; inhibition at 10 µM (SF-295): 40.4%; inhibition at 10 µM (SNB-75): 31.6%; inhibition at 10 µM [1]: 59.4% |
| Cc1ccc(CNc2c3ccccc3nc3ccccc23)cc1 [Compound 4, Acridin-9-yl-(4-methylbenzyl)-amine] | 57.3 | 73.9 | 66.5 | 89.7 | 88 | 78.2 | 56.8 | 81.4 | 99.7 | 56.4 | 86 | 53.1 | 70.3 | 58.5 | 74 | 71.9 | 96.8 | 65.8 | 69.9 | 70.7 | inhibition at 10 µM (A549/ATCC): 74%; inhibition at 10 µM (OVCAR-4): 75.5%; inhibition at 10 µM (SN12C): 75.1%; inhibition at 10 µM (HCC-2998): 103%; inhibition at 10 µM (K-562): 97%; inhibition at 10 µM (UACC-62): 56.6%; inhibition at 10 µM (OVCAR-5): 61.9%; inhibition at 10 µM (MDA-MB-435): 68.8%; inhibition at 10 µM (SF-295): 68.7%; inhibition at 10 µM (SNB-75): 58.3%; inhibition at 10 µM [1]: 74.8% |
